Test results reported in ChEMBL document CHEMBL5625220, “Discovery of anti-neuroinflammatory agents from 1,4,5,6-tetrahydrobenzo[2,3]oxepino[4,5-d]pyrimidin-2-amine derivatives by regulating microglia polarization” (Eur J Med Chem, 2023).
Calls of active or inactive are those of the source. The calls are words filed in the database; no cut-off is given here.

Key:
[1] = Cytotoxicity against mouse BV-2 cells assessed as survival rate at 5 uM incubated for 24 hrs by CCK8 assay relative to control; type: toxicity, cell-based; details: read-out: Survival
BV-2 [2] = test: Anti-inflammatory activity in mouse BV-2 cells assessed as inhibition of LPS-induced TNF-alpha production at 5 uM preincubated with LPS for 2 hrs followed by compound addition and measured after 24 hrs by ELISA relative to control; type: functional
BV-2 [3] = test: Anti-inflammatory activity in mouse BV-2 cells assessed as inhibition of LPS-induced TNF-alpha production at 2.5 ug/ml preincubated with LPS for 2 hrs followed by compound addition and measured after 24 hrs by ELISA relative to control; type: functional
Mus musculus [4] = test: Anti-inflammatory activity in cuprizone fed C57BL/6 mouse model assessed as increase in CD206 expression in corpus callosum at 5 mg/kg, ip pretreated with cuprizone for 6 weeks followed by compound administration for 2 weeks by immunofluorescence staining based confocal microscopic analysis; type: functional, organism-based
[5] = biological target: NACHT, LRR and PYD domains-containing protein 3 (Mus musculus) (UniProt Q8R4B8); test: Inhibition of NLRP3 inflammasome formation in LPS-stimulated mouse BV-2 cells assessed as downregulation of ASC protein expression preincubated with LPS for 2 hrs followed by compound addition and measured after 24 hrs by Western blot analysis; type: cell-based
NACHT, LRR and PYD domains-containing protein 3 (Mus musculus), sequence (Q8R4B8 whole entry, the tested form may be a part): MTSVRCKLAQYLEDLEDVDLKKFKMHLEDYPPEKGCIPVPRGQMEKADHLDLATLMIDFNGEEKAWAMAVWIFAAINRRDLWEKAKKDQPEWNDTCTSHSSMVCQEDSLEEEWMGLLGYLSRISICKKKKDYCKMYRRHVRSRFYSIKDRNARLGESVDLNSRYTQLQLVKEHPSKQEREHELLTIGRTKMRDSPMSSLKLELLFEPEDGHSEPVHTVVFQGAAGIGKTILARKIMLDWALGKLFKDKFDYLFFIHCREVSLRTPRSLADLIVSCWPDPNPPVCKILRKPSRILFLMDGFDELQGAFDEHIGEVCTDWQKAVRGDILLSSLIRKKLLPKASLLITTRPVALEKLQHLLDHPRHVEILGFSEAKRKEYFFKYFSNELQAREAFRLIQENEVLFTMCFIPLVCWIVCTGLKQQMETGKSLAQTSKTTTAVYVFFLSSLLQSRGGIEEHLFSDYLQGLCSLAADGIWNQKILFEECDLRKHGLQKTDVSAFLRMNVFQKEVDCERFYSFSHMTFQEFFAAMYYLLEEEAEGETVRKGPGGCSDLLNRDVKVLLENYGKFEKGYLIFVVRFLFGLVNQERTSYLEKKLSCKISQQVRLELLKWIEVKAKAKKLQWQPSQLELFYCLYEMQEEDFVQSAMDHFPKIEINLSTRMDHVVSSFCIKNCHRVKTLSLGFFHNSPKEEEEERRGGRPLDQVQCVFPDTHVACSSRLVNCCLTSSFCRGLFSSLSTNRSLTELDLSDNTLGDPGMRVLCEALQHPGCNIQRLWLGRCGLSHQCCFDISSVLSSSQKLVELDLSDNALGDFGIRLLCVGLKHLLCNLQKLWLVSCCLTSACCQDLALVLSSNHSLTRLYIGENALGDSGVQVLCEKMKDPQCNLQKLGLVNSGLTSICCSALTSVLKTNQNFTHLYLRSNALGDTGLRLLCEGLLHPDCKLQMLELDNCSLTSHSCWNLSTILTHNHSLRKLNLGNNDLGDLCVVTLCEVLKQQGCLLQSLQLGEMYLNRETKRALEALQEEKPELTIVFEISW

BV-2 [6] = test: Anti-neuroinflammatory activity in LPS-induced mouse BV-2 cells assessed as decrease in IL-1beta secretion preincubated with LPS for 2 hrs followed by compound addition and measured after 24 hrs by ELISA; type: functional, cell-based
BV-2 [7] = test: Effect on TNF-alpha expression in mouse BV-2 cells incubated for 24 hrs by ELISA; type: functional, cell-based
BV-2 [8] = test: Anti-neuroinflammatory activity in LPS-induced mouse BV-2 cells assessed as decrease in CD86 labeled microglial cells preincubated with LPS for 2 hrs followed by compound addition and measured after 24 hrs by flow cytometric analysis; type: functional, cell-based
BV-2 [9] = test: Downregulation of PKM2 expression in LPS-stimulated mouse BV-2 cells preincubated with LPS for 2 hrs followed by compound addition and measured after 24 hrs by immunofluorescence staining based confocal microscopic analysis; type: functional, cell-based
BV-2 [10] = test: Anti-neuroinflammatory activity in LPS-induced mouse BV-2 cells assessed as decrease in TNF-alpha secretion preincubated with LPS for 2 hrs followed by compound addition and measured after 24 hrs by ELISA; type: functional, cell-based
Mus musculus [11] = test: Anti-inflammatory activity in cuprizone fed C57BL/6 mouse model assessed as increase in remyelination in corpus callosum at 5 mg/kg, ip pretreated with cuprizone for 6 weeks followed by compound administration for 2 weeks by LFB staining based analysis; type: functional, organism-based
BV-2 [12] = test: Effect on IL-18 expression in mouse BV-2 cells incubated for 24 hrs by ELISA; type: functional, cell-based
BV-2 [13] = test: Anti-neuroinflammatory activity in LPS-induced mouse BV-2 cells assessed as decrease in IL-18 secretion preincubated with LPS for 2 hrs followed by compound addition and measured after 24 hrs by ELISA; type: functional, cell-based
BV-2 [14] = test: Anti-neuroinflammatory activity in LPS-induced mouse BV-2 cells assessed as increase in Arg-1 labeled microglial cells preincubated with LPS for 2 hrs followed by compound addition and measured after 24 hrs by flow cytometric analysis; type: functional, cell-based
BV-2 [15] = test: Effect on NLRP3 expression in mouse BV-2 cells incubated for 24 hrs by Western blot analysis; type: functional, cell-based
BV-2 [16] = test: Effect on IL-1beta expression in mouse BV-2 cells incubated for 24 hrs by ELISA; type: functional, cell-based
BV-2 [17] = test: Anti-neuroinflammatory activity in LPS-induced mouse BV-2 cells assessed as increase in IL-10 secretion preincubated with LPS for 2 hrs followed by compound addition and measured after 24 hrs by ELISA; type: functional, cell-based
BV-2 [18] = test: Anti-neuroinflammatory activity in LPS-induced mouse BV-2 cells assessed as decrease in iNOS labeled microglial cells preincubated with LPS for 2 hrs followed by compound addition and measured after 24 hrs by flow cytometric analysis; type: functional, cell-based
BV-2 [19] = test: Downregulation of PKM2 expression in LPS-stimulated mouse BV-2 cells preincubated with LPS for 2 hrs followed by compound addition and measured after 24 hrs by Western blot analysis; type: functional, cell-based
BV-2 [20] = test: Anti-neuroinflammatory activity in mouse BV-2 cells assessed as microglial polarization into M2 phenotype by measuring decrease in iNOS expression preincubated with LPS for 2 hrs followed by compound addition and measured after 24 hrs by immunofluorescence staining based confocal microscopic analysis; type: functional, cell-based
BV-2 [21] = test: Anti-neuroinflammatory activity in LPS-induced mouse BV-2 cells assessed as increase in CD206 labeled microglial cells preincubated with LPS for 2 hrs followed by compound addition and measured after 24 hrs by flow cytometric analysis; type: functional, cell-based
Mus musculus [22] = test: Anti-inflammatory activity in cuprizone fed C57BL/6 mouse model assessed as decrease in iNOS expression in corpus callosum at 5 mg/kg, ip pretreated with cuprizone for 6 weeks followed by compound administration for 2 weeks by immunofluorescence staining based confocal microscopic analysis; type: functional, organism-based
[23] = biological target: NACHT, LRR and PYD domains-containing protein 3 (Mus musculus) (UniProt Q8R4B8); test: Inhibition of NLRP3 inflammasome formation in LPS-stimulated mouse BV-2 cells assessed as downregulation of caspase-1 protein expression preincubated with LPS for 2 hrs followed by compound addition and measured after 24 hrs by Western blot analysis; type: cell-based
BV-2 [24] = test: Induction of microglial polarization to M2 phenotype in mouse BV-2 cells assessed as decrease in number of M1 phenotype microglial cells incubated for 24 hrs by flow cytometric analysis; type: functional, cell-based
BV-2 [25] = test: Anti-neuroinflammatory activity in mouse BV-2 cells assessed as microglial polarization into M2 phenotype by measuring increase in CD206 expression preincubated with LPS for 2 hrs followed by compound addition and measured after 24 hrs by immunofluorescence staining based confocal microscopic analysis; type: functional, cell-based
BV-2 [26] = test: Induction of microglial polarization to M2 phenotype in mouse BV-2 cells assessed as increase in number of M2 phenotype microglial cells incubated for 24 hrs by flow cytometric analysis; type: functional, cell-based
BV-2 [27] = test: Effect on ASC expression in mouse BV-2 cells incubated for 24 hrs by Western blot analysis; type: functional, cell-based
BV-2 [28] = test: Effect on IL-10 expression in mouse BV-2 cells incubated for 24 hrs by ELISA; type: functional, cell-based
[29] = biological target: NACHT, LRR and PYD domains-containing protein 3 (Mus musculus) (UniProt Q8R4B8); test: Inhibition of NLRP3 inflammasome formation in LPS-stimulated mouse BV-2 cells assessed as downregulation of NLRP3 protein expression preincubated with LPS for 2 hrs followed by compound addition and measured after 24 hrs by Western blot analysis; type: cell-based
BV-2 [30] = test: Effect on caspase-1 expression in mouse BV-2 cells incubated for 24 hrs by Western blot analysis; type: functional, cell-based

COc1cc(OC)c2c(c1)OCC/C(=C\c1cccc(C(F)(F)F)c1F)C2=O
viability at 24 h, 5 µM [1]: 117%
inhibition at 5 µM (BV-2 [2]): 88.7%

COc1cc(OC)c2c(c1)OCCC1=C2NC(N)=NC1c1cccc(F)c1 (stereo unspecified)
viability at 24 h, 5 µM [1]: 120%
inhibition at 5 µM (BV-2 [2]): 74.3%

COc1cc(OC)c2c(c1)OCCC(C(O)c1cccc(C(F)(F)F)c1)C2=O (stereo unspecified)
viability at 24 h, 5 µM [1]: 150%
inhibition at 5 µM (BV-2 [2]): 65.1%

COc1cc(OC)c2c(c1)OCC/C(=C\c1cc(F)cc(F)c1)C2=O
viability at 24 h, 5 µM [1]: 150%
inhibition at 5 µM (BV-2 [2]): 73.6%

COc1cc(OC)c2c(c1)OCCC1=C2NC(N)=NC1c1cccc(F)c1C(F)(F)F (stereo unspecified)
viability at 24 h, 5 µM [1]: 95.4%
inhibition at 5 µM (BV-2 [2]): 72.3%

COc1cc(OC)c2c(c1)OCC/C(=C\c1c(F)cccc1C(F)(F)F)C2=O
viability at 24 h, 5 µM [1]: 116%
inhibition at 5 µM (BV-2 [2]): 36.8%

COc1cc(OC)c2c(c1)OCC/C(=C\c1ccc(F)cc1C(F)(F)F)C2=O
viability at 24 h, 5 µM [1]: 114%
inhibition at 5 µM (BV-2 [2]): 69.5%

COc1cc(OC)c2c(c1)OCC/C(=C\c1ccccc1F)C2=O
viability at 24 h, 5 µM [1]: 146%
inhibition at 5 µM (BV-2 [2]): 62.1%

COc1cc(OC)c2c(c1)OCCC1=C2NC(N)=NC1c1cccc(C(F)(F)F)c1F (stereo unspecified)
viability at 24 h, 5 µM [1]: 111%
inhibition at 5 µM (BV-2 [2]): 91.5%

COc1cc(OC)c2c(c1)OCCC1=C2NC(N)=NC1c1ccccc1C(F)(F)F (stereo unspecified)
viability at 24 h, 5 µM [1]: 113%
inhibition at 5 µM (BV-2 [2]): 70.2%

COc1cc(OC)c2c(c1)OCCC1=C2NC(N)=NC1c1ccc(F)cc1C(F)(F)F (stereo unspecified)
viability at 24 h, 5 µM [1]: 87.4%
inhibition at 5 µM (BV-2 [2]): 66.4%

COc1cc(OC)c2c(c1)OCC/C(=C\c1cc(C(F)(F)F)cc(C(F)(F)F)c1)C2=O
viability at 24 h, 5 µM [1]: 95%
inhibition at 5 µM (BV-2 [2]): 88.6%

COc1cc(OC)c2c(c1)OCCC1=C2NC(N)=NC1c1c(F)cccc1F (stereo unspecified)
viability at 24 h, 5 µM [1]: 126%
inhibition at 5 µM (BV-2 [2]): 67.4%

COc1cc(OC)c2c(c1)OCC/C(=C\c1cccc(F)c1C(F)(F)F)C2=O
viability at 24 h, 5 µM [1]: 120%
inhibition at 5 µM (BV-2 [2]): 68.3%

S=C(S)N1CCCC1 [PYRROLIDINE DITHIOCARBAMATE]
inhibition at 2.5 µg/mL (BV-2 [3]): 58.4%

COc1cc(OC)c2c(c1)OCC/C(=C\c1ccc(F)cc1)C2=O
viability at 24 h, 5 µM [1]: 148%
inhibition at 5 µM (BV-2 [2]): 46.3%

COc1cc(OC)c2c(c1)OCCC1=C2NC(N)=NC1c1cc(F)ccc1F (stereo unspecified)
viability at 24 h, 5 µM [1]: 156%
inhibition at 5 µM (BV-2 [2]): 73.5%

COc1cc(OC)c2c(c1)OCCC1=C2NC(N)=NC1c1cc(F)cc(F)c1 (stereo unspecified)
viability at 24 h, 5 µM [1]: 128%
inhibition at 5 µM (BV-2 [2]): 76.8%

COc1cc(OC)c2c(c1)OCC/C(=C\c1cc(F)ccc1F)C2=O
viability at 24 h, 5 µM [1]: 168%
inhibition at 5 µM (BV-2 [2]): 74.1%

COc1cc(OC)c2c(c1)OCC/C(=C\c1cccc(F)c1)C2=O
viability at 24 h, 5 µM [1]: 146%
inhibition at 5 µM (BV-2 [2]): 69.3%

COc1cc(OC)c2c(c1)OCC/C(=C\c1c(F)cccc1F)C2=O
viability at 24 h, 5 µM [1]: 146%
inhibition at 5 µM (BV-2 [2]): 62.5%

COc1cc(OC)c2c(c1)OCCC1=C2NC(N)=NC1c1ccc(F)cc1 (stereo unspecified)
viability at 24 h, 5 µM [1]: 157%
inhibition at 5 µM (BV-2 [2]): 56.8%

COc1cc(OC)c2c(c1)OCCC1=C2NC(N)=NC1c1ccccc1F (stereo unspecified)
viability at 24 h, 5 µM [1]: 143%
inhibition at 5 µM (BV-2 [2]): 73.4%

COc1cncc(-c2nc(N)nc3c2CCc2ccc(F)cc2-3)c1
viability at 24 h, 5 µM [1]: 99.3%
inhibition at 5 µM (BV-2 [2]): 62.9%

COc1cc(OC)c2c(c1)OCC/C(=C\c1ccccc1C(F)(F)F)C2=O
viability at 24 h, 5 µM [1]: 142%
inhibition at 5 µM (BV-2 [2]): 74.3%

COc1cc(OC)c2c(c1)OCCC1=C2NC(N)=NC1c1c(F)cccc1C(F)(F)F (stereo unspecified)
viability at 24 h, 5 µM [1]: 124%
inhibition at 5 µM (BV-2 [2]): 65.7%

COc1cc(OC)c2c(c1)OCCC1=C2NC(N)=NC1c1cc(C(F)(F)F)cc(C(F)(F)F)c1 (stereo unspecified)
Activity (Mus musculus [4]): Active
inhibition [5]: Active
Activity (BV-2 [6]): Active
Activity (BV-2 [7]): inactive
Activity (BV-2 [8]): Active
Activity (BV-2 [9]): Active
Activity (BV-2 [10]): Active
Activity (Mus musculus [11]): Active
Activity (BV-2 [12]): inactive
Activity (BV-2 [13]): Active
Activity (BV-2 [14]): Active
Activity (BV-2 [15]): inactive
Activity (BV-2 [16]): inactive
Activity (BV-2 [17]): Active
Activity (BV-2 [18]): Active
Activity (BV-2 [19]): Active
Activity (BV-2 [20]): Active
Activity (BV-2 [21]): Active
viability at 24 h, 5 µM [1]: 151%
Activity (Mus musculus [22]): Active
inhibition [23]: Active
Activity (BV-2 [24]): inactive
Activity (BV-2 [25]): Active
Activity (BV-2 [26]): Active
Activity (BV-2 [27]): inactive
inhibition at 5 µM (BV-2 [2]): 94.5%
Activity (BV-2 [28]): inactive
inhibition [29]: Active
Activity (BV-2 [30]): inactive

COc1cc(OC)c2c(c1)OCCC1=C2NC(N)=NC1c1ccc(C(F)(F)F)cc1 (stereo unspecified)
viability at 24 h, 5 µM [1]: 150%
inhibition at 5 µM (BV-2 [2]): 72.1%

COc1cc(OC)c2c(c1)OCCC1=C2NC(N)=NC1c1cccc(C(F)(F)F)c1 (stereo unspecified)
viability at 24 h, 5 µM [1]: 109%
inhibition at 5 µM (BV-2 [2]): 82.6%

COc1cc(OC)c2c(c1)OCC/C(=C\c1ccc(C(F)(F)F)cc1)C2=O
viability at 24 h, 5 µM [1]: 145%
inhibition at 5 µM (BV-2 [2]): 65.8%
